Tested on: mean blood pressure
Assay: Antihypertensive activity: intra-arterial mean blood pressure after single oral dose in rats
Assay type: in vivo
Settings: rat, p.o.; for ED25 (dose lowering mean blood pressure of 25 mmHg) / ED (25 mmHg): single dose, calculated from dose-response regression line; for Decrease in mean blood pressure at 15' / Decrease in mean blood pressure at 30' / Decrease in mean blood pressure at 1 h / Decrease in mean blood pressure at 2 h / Decrease in mean blood pressure at 3 h / Decrease in mean blood pressure at 4 h / Decrease in mean blood pressure at 5 h / Decrease in mean blood pressure at 6 h / Decrease in mean blood pressure at 8 h / Decrease in mean blood pressure at 10 h / Decrease in mean blood pressure at 12 h: ex 40 0.125, Example 1 0.5, ex 41 0.25, Example 2 1 mg/kg; for Decrease in mean blood pressure at 15': 15 min, not significant (**): Example 1; for Decrease in mean blood pressure at 30': 30 min; for Decrease in mean blood pressure at 6 h: not significant (**): ex 41; for Decrease in mean blood pressure at 8 h / Decrease in mean blood pressure at 10 h / Decrease in mean blood pressure at 12 h: not significant (**): ex 40, ex 41; for ED (25 mmHg): po, read-out: ED25 (dose lowering mean blood pressure of 25 mmHg)
Description: Intrarterial measurements of mean blood pressure (MBP) were performed through catheters (PE 50, Clay Adams) implanted in the rat right carotid artery under halothane anesthesia. Twenty four hours after surgery, the animals were placed in Ballman cages and the arterial cannula was connected via a pressure transducer to a Beckman blood pressure recorder for continuous monitoring of mean blood pressure. MBP was recorded before the oral administration (basal values) and at 15-30-60-120-240 minutes until 12 hours after treatment. Groups of 7 to 8 rats were orally treated with a single dose of the test compound of vehicle, methocel 0.5% w/v (0.2 ml/100 g b.w.). The ED25 was calculated for each compound from the dose-response regression line.
As reference standard drugs, two prior art ergoline derivatives described by EP 0126968 were also tested.
In fact, the mean blood pressure decrease induced by the two derivatives of the present invention was still significant 10 to 12 hours after dosing, whereas with the prior art compounds the hypotensive effect lasted only 5 to 6 hours. The oral orientative acute toxicity (LD50) in mice (evaluated in the Irwin test) of the compounds of the formula I was higher than 800 mg/kg.

| Compound | ED25 (dose lowering mean blood pressure of 25 mmHg) | Decrease in mean blood pressure at 15' | Decrease in mean blood pressure at 30' | Decrease in mean blood pressure at 1 h | Decrease in mean blood pressure at 2 h | Decrease in mean blood pressure at 3 h | Decrease in mean blood pressure at 4 h | Decrease in mean blood pressure at 5 h | Decrease in mean blood pressure at 6 h | Decrease in mean blood pressure at 8 h | Decrease in mean blood pressure at 10 h | Decrease in mean blood pressure at 12 h | ED (25 mmHg) |
| --- | --- | --- | --- | --- | --- | --- | --- | --- | --- | --- | --- | --- | --- |
| 1-[6-methyl -Δ- 9,10-ergolen -8β- yl)methyl]-2,4-(1H,3H)dihydro-pyrimidinedione-N6-oxide [Example 1] | 0.050 mg/Kg^-1 | -12.2 ΔmmHg | -21.0 ΔmmHg | -32.2 ΔmmHg | -35.5 ΔmmHg | -45.1 ΔmmHg | -55.1 ΔmmHg | -58.5 ΔmmHg | -54.3 ΔmmHg | -44.3 ΔmmHg | -35.5 ΔmmHg | -27.2 ΔmmHg |  |
| C[N+]1([O-])C[C@H](CN2CC(=O)NC2=O)C=C2c3cccc4[nH]cc(c34)C[C@H]21 (stereo partly drawn) [Example 2, 1-[(6-methyl -Δ-9,10-ergolen-8β-yl)methyl]-2,4-imidazolidinedione-N6-oxide] |  | -23.1 ΔmmHg | -27.5 ΔmmHg | -35.9 ΔmmHg | -34.1 ΔmmHg | -35.0 ΔmmHg | -38.4 ΔmmHg | -36.5 ΔmmHg | -34.1 ΔmmHg | -27.8 ΔmmHg | -22.5 ΔmmHg | -16.2 ΔmmHg | 0.198 mg/kg |
| CN1C[C@H](Cn2ccc(=O)[nH]c2=O)C=C2c3cccc4[nH]cc(c34)C[C@H]21 [Standard, ex 40 of EP 0126968, 1-[(6-methy -Δ-9,10-ergolen-8β-yl)methyl]-2,4-(1H,3H)dihydro-pyrimidine diole] | 0.046 mg/Kg^-1 | -22.9 ΔmmHg | -34.5 ΔmmHg | -33.9 ΔmmHg | -37.3 ΔmmHg | -34.5 ΔmmHg | -42.7 ΔmmHg | -28.9 ΔmmHg | -25.5 ΔmmHg | -10.5 ΔmmHg | -7.3 ΔmmHg | -6.7 ΔmmHg |  |
| CN1C[C@H](CN2CC(=O)NC2=O)C=C2c3cccc4[nH]cc(c34)C[C@H]21 [Standard, ex 41 of EP 0126968, 1-[(6-methyl-Δ-9,10-ergolen-8β-yl)methyl]-2,4-imidazolidinedione] |  | -26.8 ΔmmHg | -31.4 ΔmmHg | -29.6 ΔmmHg | -37.5 ΔmmHg | -35.7 ΔmmHg | -31.4 ΔmmHg | -15.7 ΔmmHg | -14.6 ΔmmHg | -2.5 ΔmmHg | -6.5 ΔmmHg | -9.4 ΔmmHg | 0.19 mg/kg |

Reference: patent publication US4859678A, “N-oxide ergolines as antihypertensive agents” (Farmitalia Carlo Erba, priority 1987, dated 1989)
